For 2 compounds, logKa and ΔTm results are on record in article PMC10889688 (2024).

In test [1] the test system is rArU (AU homopolynucleotide) (RNA, polymer) A/U. In words: fluorescence titration, Scatchard equation. To be noted: Na+ (sodium cacodylate, I = 0.05 mol dm^-3); sodium cacodylate buffer pH 7.0, 25 °C; RNA concentration as phosphates; per base.
Test [2] shares this test system. The test can be described thus: UV thermal melting at 260 nm. To be noted: Na+ (sodium cacodylate, I = 0.05 mol dm^-3); sodium cacodylate buffer pH 7.0; r = [compound]/[polynucleotide] = 0.1; per base.

Broadly, the ΔTm is the change in melting temperature against a reference sample. Regarding `CN(C)CCCNc1ccc2cc3cc(C#N)c4nc5ccccc5n4c3nc2c1`, the logKa in test [1] turned out to be 8.6. Moreover, the ΔTm in test [2] came out at 1.1 ± 0.5 °C.

`N#Cc1cc2cc3ccc(N4CCNCC4)cc3nc2n2c1nc1ccccc12` showed a logKa in test [1] of 7.9. Also, the ΔTm in test [2] was 4.9 ± 0.5 °C.
